Source: patent US11926596B2, “Inhibitors of Rho associated coiled-coil containing protein kinase” (KADMON CORPORATION, LLC, priority 2017, dated 2024)

Key:
[1] = target: T1, recombinant ROCK2 (amino acids 1-552) (Homo sapiens, UniProt O75116); test: Z'-lyte kinase assay, ROCK2; type: biochemical; details: for inhibition at 3 µM / inhibition at 1 µM / inhibition at 0.5 µM: read-out: ROCK2 % inh
T1 construct: ROCK2 (amino acids 1-552) proteins were purchased from ThermoFisher Scientific; purchased ThermoFisher Scientific
Experimental: (§1) Determination of compounds ROCK inhibitory activity in vitro (Z'lyte assay): recombinant ROCK1 (amino acids 1-535) and ROCK2 (amino acids 1-552) proteins were purchased from ThermoFisher Scientific. Compounds activities were measured by Z′-lyte kinase kit (ThermoFisher Scientific) and IC50s were calculated.
(§2) Table 2, below, provides in vitro and cellular inhibition of ROCKs by compounds of the invention. Compounds activities were measured by Z′-lyte kinase kit (ThermoFisher Scientific). […] IC50s were calculated using the GraphPad Prism software with kinase activities data that were collected from points 9 serial dilution of compounds treatment. The ROCK inhibition in A7R5 cells and NIH3T3 (Acta2-Luc) cells was performed as described above.

[2] = target: T2, recombinant ROCK1 (amino acids 1-535) (Homo sapiens, UniProt Q13464); test: Z'-lyte kinase assay, ROCK1; type: biochemical; details: for inhibition at 3 µM / inhibition at 0.5 µM: read-out: ROCK1 % inh
T2 construct: recombinant ROCK1 (amino acids 1-535) and ROCK2; purchased ThermoFisher Scientific
Experimental: as §1, §2

[3] = test system: phospho-myosin light chains (ppMlc, Thr18/Ser19) in A7R5 cells; test: A7R5 in-cell ELISA, phospho-myosin light chain; type: cell-based, rat; details: for IC50 / inhibition at 1 µM / inhibition at 10 µM: Rattus norvegicus, A7R5 cells; for IC50: 1.5 h, 90 min, read-out: pMLC IC50 A7R5; for inhibition at 1 µM / inhibition at 10 µM: read-out: pMLC % inh A7R5
Experimental: Determination of compounds ROCK inhibitory activity in A7R5 cells: rat aortic smooth muscle cell line A7R5 cells were maintained and treated in DMEM medium with 10% of fetal bovine serum. Cells were seeded with density of 5,000 cells/well in 96-well plates for 24 hours and subsequently treated 90 min with testing compounds. Cells were then fixed and processed according to the In-Cell ELISA Colorimetric Detection Kit manual (Thermo Scientific). Cellular phospho-myosin light chains (ppMlc, Thr18/Ser19) levels were determined after treatments of DMSO control or test compounds using the In-Cell ELISA kit. The percent inhibition rate was calculated by applying the data obtained with 1 μM (or 10 μM) compound treatment to the formula, [1-(compound/DMSO)]×100%. ppMlc data obtained with 9 points 2-fold serial dilution of compounds were applied to the nonlinear regression curve fit function of the GraphPad Prism software to calculate the In cell IC50s.
A7R5 cells were treated with 9 points 2 fold serial dilution of compounds and ppMlc (T18/S19) levels were determined in order to calculate cellular IC50s of the compounds.
Two steps of measurements were adopted for pMLC/A7R5 IC50. Percent inhibition rates were calculated with a single dose (1 μM or 10 μM) compounds treatment to screen for active compounds and then cellular IC50s were measured only in compounds that have over 50% of inhibition rates.

T2 sequence (Q13464 1-535): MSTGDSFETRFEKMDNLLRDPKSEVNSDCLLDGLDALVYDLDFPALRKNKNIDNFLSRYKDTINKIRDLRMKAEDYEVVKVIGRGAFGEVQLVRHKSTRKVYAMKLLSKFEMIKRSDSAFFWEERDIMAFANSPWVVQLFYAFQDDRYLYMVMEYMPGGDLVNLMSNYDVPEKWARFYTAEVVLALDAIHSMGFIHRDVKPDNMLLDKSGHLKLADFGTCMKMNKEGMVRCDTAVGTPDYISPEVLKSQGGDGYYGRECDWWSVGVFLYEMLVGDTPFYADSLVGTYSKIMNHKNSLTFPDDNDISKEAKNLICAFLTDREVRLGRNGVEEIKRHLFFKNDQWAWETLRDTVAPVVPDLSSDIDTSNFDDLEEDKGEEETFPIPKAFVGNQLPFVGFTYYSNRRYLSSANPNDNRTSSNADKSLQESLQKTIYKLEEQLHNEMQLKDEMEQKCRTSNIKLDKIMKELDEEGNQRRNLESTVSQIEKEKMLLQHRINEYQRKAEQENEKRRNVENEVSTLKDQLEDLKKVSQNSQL
T1 sequence (O75116 1-552): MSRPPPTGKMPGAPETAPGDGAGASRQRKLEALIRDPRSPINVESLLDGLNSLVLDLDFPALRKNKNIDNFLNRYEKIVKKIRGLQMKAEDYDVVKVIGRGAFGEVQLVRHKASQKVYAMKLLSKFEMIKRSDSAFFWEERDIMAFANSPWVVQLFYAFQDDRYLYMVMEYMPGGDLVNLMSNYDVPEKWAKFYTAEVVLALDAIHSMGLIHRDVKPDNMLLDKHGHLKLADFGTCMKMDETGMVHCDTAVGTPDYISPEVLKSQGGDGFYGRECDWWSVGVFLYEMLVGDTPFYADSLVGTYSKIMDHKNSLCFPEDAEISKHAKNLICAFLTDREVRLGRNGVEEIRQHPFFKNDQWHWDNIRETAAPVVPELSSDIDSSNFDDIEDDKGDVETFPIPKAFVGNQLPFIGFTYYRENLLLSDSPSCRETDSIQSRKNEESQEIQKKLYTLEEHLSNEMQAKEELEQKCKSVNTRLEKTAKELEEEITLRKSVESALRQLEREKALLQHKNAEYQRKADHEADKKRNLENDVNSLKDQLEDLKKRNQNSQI

Row | IC50 [1] | IC50 [2] | inhibition at 3 µM [2] | IC50 [3] | SMILES | other results
1 | 248 nM | < 10 nM | 93.3% | 556 nM | CCNC(C(=O)Nc1ccc2[nH]ncc2c1)c1ccc(Cl)cc1 (stereo not drawn) [Example 17, 2-(4-chlorophenyl)-2-(ethylamino)-N-(1H-indazol-5-yl)acetamide] | inhibition at 3 µM [1]: 96.3%; cellular ROCK inhibition compared with Comparative Example 2 ([3]; phosphorylation of the ROCK target pMLC in A7R5 cells): enhanced
2 |  |  |  |  | CC1NC(C(=O)Nc2ccc3[nH]ncc3c2)c2ccccc21 (stereo not drawn) [Example 9, N-(1H-indazol-5-yl)-3-methylisoindoline-1-carboxamide] | inhibition at 1 µM [3]: 4%
3 | 66 nM | 79 nM |  | 2980 nM | COc1ccc(C(NC2CC2)C(=O)Nc2ccc3[nH]ncc3c2)cc1 (stereo not drawn) [Example 27, 2-(cyclopropylamino)-N-(1H-indazol-5-yl)-2-(4-methoxyphenyl)acetamide] | 
4 | 6.3 nM | 65.7 nM | 99% | 934 nM | Cc1ccc(C(NC(C)C)C(=O)Nc2ccc3[nH]ncc3c2)cc1 (stereo not drawn) [Example 29, N-(1H-indazol-5-yl)-2-(isopropylamino)-2-(p-tolyl)acetamide] | inhibition at 3 µM [1]: 98.8%
5 | 74.3 nM | 98.1 nM | 99% | 2600 nM | CC(C)(C)NC(C(=O)Nc1ccc2[nH]ncc2c1)c1ccccc1 (stereo not drawn) [Example 37, 2-(tert-butylamino)-N-(1H-indazol-5-yl)-2-phenylacetamide] | inhibition at 3 µM [1]: 98.8%
6 |  |  |  | 2620 nM | O=C(Nc1ccc2[nH]ncc2c1)C1CNCc2ccccc21 (stereo not drawn) [Example 8, N-(1H-indazol-5-yl)-1,2,3,4-tetrahydroisoquinoline-4-carboxamide] | inhibition at 1 µM [1]: 76.7%
7 | 453 nM | 143 nM |  |  | CNC(C(=O)Nc1ccc2[nH]ncc2c1)c1ccccn1 (stereo not drawn) [Example 40, N-(1H-indazol-5-yl)-2-(methylamino)-2-(pyridin-2-yl)acetamide] | inhibition at 10 µM [3]: 37%
8 |  |  | 0% |  | O=C(Nc1ccc2[nH]ncc2c1)C1CNc2ccccc2C1 (stereo not drawn) [Example 3, N-(1H-indazol-5-yl)-1,2,3,4-tetrahydroquinoline-3-carboxamide] | inhibition at 3 µM [1]: 0%; inhibition at 1 µM [3]: 25%
9 | 9.9 nM | 24.7 nM | 99% | 766 nM | COc1ccc(C(NC(C)(C)C)C(=O)Nc2ccc3[nH]ncc3c2)cc1 (stereo not drawn) [Example 36, 2-(tert-butylamino)-N-(1H-indazol-5-yl)-2-(4-methoxyphenyl)acetamide] | inhibition at 3 µM [1]: 98.8%
10 | > 1000 nM | 310 nM |  |  | CNC(C(=O)Nc1ccc2[nH]ncc2c1)c1ccc(-c2ccccc2OC)cc1 (stereo not drawn) [Example 32, N-(1H-indazol-5-yl)-2-(2′-methoxy-[1,1′-biphenyl]-4-yl)-2-(methylamino)acetamide] | inhibition at 10 µM [3]: 5%
11 |  |  | 92.2% | 4410 nM | NC(C(=O)Nc1ccc2[nH]ncc2c1)c1ccc(Cl)cc1 (stereo not drawn) [Comp2, reference compound] | inhibition at 3 µM [1]: 97.5%
12 |  |  |  |  | O=C(Nc1ccc2[nH]ncc2c1)C1CCNC1 (stereo not drawn) [Example 11, N-(1H-indazol-5-yl)pyrrolidine-3-carboxamide] | inhibition at 1 µM [3]: 1%
13 | 77 nM | 38 nM |  | 35800 nM | O=C(Nc1ccc2[nH]ncc2c1)C1NCCc2ccccc21 (stereo not drawn) [Example 5, N-(1H-indazol-5-yl)-1,2,3,4-tetrahydroisoquinoline-1-carboxamide] | 
14 | > 1000 nM | 421 nM |  |  | O=C(Nc1ccc2[nH]ncc2c1)C1NCc2ccccc21 (stereo not drawn) [Example 6, N-(1H-indazol-5-yl)isoindoline-1-carboxamide] | inhibition at 10 µM [3]: 1%
15 | 213 nM | 250 nM |  | 4200 nM | CNC(C(=O)Nc1ccc2[nH]ncc2c1)c1cccnc1 (stereo not drawn) [Example 39, N-(1H-indazol-5-yl)-2-(methylamino)-2-(pyridin-3-yl)acetamide] | 
16 | 9.7 nM | 10.6 nM | 99% | 633 nM | COc1ccc(C(NC(C)C)C(=O)Nc2ccc3[nH]ncc3c2)cc1 (stereo not drawn) [Example 25, N-(1H-indazol-5-yl)-2-(isopropylamino)-2-(4-methoxyphenyl)acetamide] | inhibition at 3 µM [1]: 98.8%

Row | IC50 [1] | IC50 [2] | inhibition at 3 µM [2] | IC50 [3] | SMILES | other results
17 |  |  | 91.5% | 2390 nM | CCNC(C(=O)Nc1ccc2[nH]ncc2c1)c1ccccc1 (stereo not drawn) [Example 21, 2-(ethylamino)-N-(1H-indazol-5-yl)-2-phenylacetamide] | inhibition at 3 µM [1]: 95.8%
18 | 43 nM | 495 nM | 94.3% | 1060 nM | CCNC(C(=O)Nc1ccc2[nH]ncc2c1)c1ccc(F)cc1 (stereo not drawn) [Example 23, 2-(ethylamino)-2-(4-fluorophenyl)-N-(1H-indazol-5-yl)acetamide] | inhibition at 3 µM [1]: 95.3%
19 | 438 nM |  |  |  | COc1cccc(C(NCCN(C)C)C(=O)Nc2ccc3[nH]ncc3c2)c1 (stereo not drawn) [Example 34, 2-((2-(dimethylamino)ethyl)amino)-N-(1H-indazol-5-yl)-2-(3-methoxyphenyl)acetamide] | inhibition at 10 µM [3]: 49%
20 |  |  |  |  | O=C(Nc1ccc2[nH]ncc2c1)C1CCCCN1 (stereo not drawn) [Example 13, N-(1H-indazol-5-yl)piperidine-2-carboxamide] | inhibition at 1 µM [3]: 11%
21 |  |  |  |  | COCCNC(C(=O)Nc1ccc2[nH]ncc2c1)c1cccc(OC)c1 (stereo not drawn) [Example 46, N-(1H-indazol-5-yl)-2-((2-methoxyethyl)amino)-2-(3-methoxyphenyl)acetamide] | inhibition at 1 µM [1]: 67%; inhibition at 10 µM [3]: 27%
22 |  |  |  |  | O=C(Nc1ccc2[nH]ncc2c1)[C@@H]1CC[C@H](c2ccccc2)N1 [Example 12, (2S,5R)-N-(1H-indazol-5-yl)-5-phenylpyrrolidine-2-carboxamide] | inhibition at 1 µM [3]: 1%
23 |  |  |  |  | O=C(Nc1ccc2[nH]ncc2c1)C1CCCN1 (stereo not drawn) [Example 10, N-(1H-indazol-5-yl)pyrrolidine-2-carboxamide] | inhibition at 1 µM [3]: 1%
24 | 21 nM |  |  |  | CNC(C(=O)Nc1ccc2[nH]ncc2c1)c1cccc(OC(F)(F)F)c1 (stereo not drawn) [Example 50, N-(1H-indazol-5-yl)-2-(methylamino)-2-(3-(trifluoromethoxy)-phenyl)acetamide] | inhibition at 0.5 µM [1]: 93%; inhibition at 0.5 µM [2]: 93%
25 | 33 nM | 1310 nM | 99% |  | Cc1ccc(C(N)C(=O)Nc2ccc3[nH]ncc3c2)cc1 (stereo not drawn) [Comp5, reference compound] | inhibition at 1 µM [1]: 96.2%
26 |  |  |  |  | CNC(C(=O)Nc1ccc2[nH]ncc2c1)c1ccc(-c2ccc(OC)cc2)cc1 (stereo not drawn) [Example 45, N-(1H-indazol-5-yl)-2-(4′-methoxy-[1,1′-biphenyl]-4-yl)-2-(methylamino)acetamide] | inhibition at 1 µM [1]: 22%; inhibition at 10 µM [3]: 4%
27 |  |  |  |  | CNC(C(=O)Nc1ccc2[nH]ncc2c1)c1ccccc1OC (stereo not drawn) [Example 35, N-(1H-indazol-5-yl)-2-(2-methoxyphenyl)-2-(methylamino)acetamide] | inhibition at 1 µM [1]: 71%; inhibition at 1 µM [3]: 16%
28 | 87 nM |  |  |  | CCNC(C(=O)Nc1ccc2[nH]ncc2c1)c1cccc(C)c1 (stereo not drawn) [Example 49, 2-(ethylamino)-N-(1H-indazol-5-yl)-2-(m-tolyl)acetamide] | inhibition at 0.5 µM [1]: 76%; inhibition at 0.5 µM [2]: 88%
29 |  |  |  |  | CNC(C(=O)Nc1ccc2[nH]ncc2c1)c1ccc(-c2ccccc2F)cc1 (stereo not drawn) [Example 33, 2-(2′-fluoro-[1,1′-biphenyl]-4-yl)-N-(1H-indazol-5-yl)-2-(methylamino)acetamide] | inhibition at 1 µM [1]: 66.5%; inhibition at 10 µM [3]: 48%
30 | 455 nM |  |  |  | CNC(C(=O)Nc1ccc2[nH]ncc2c1)c1ccc(OC(C)C)cc1 (stereo not drawn) [Example 44, N-(1H-indazol-5-yl)-2-(4-isopropoxyphenyl)-2-(methylamino)acetamide] | inhibition at 10 µM [3]: 42%
31 | 73 nM |  |  |  | CCOc1ccc(C(NC)C(=O)Nc2ccc3[nH]ncc3c2)cc1 (stereo not drawn) [Example 43, 2-(4-ethoxyphenyl)-N-(1H-indazol-5-yl)-2-(methylamino)acetamide] | inhibition at 1 µM [1]: 98%; inhibition at 10 µM [3]: 4%
32 | 71 nM |  |  |  | CNC(C(=O)Nc1ccc2[nH]ncc2c1)c1ccc(F)c(OC)c1 (stereo not drawn) [Example 48, 2-(4-fluoro-3-methoxyphenyl)-N-(1H-indazol-5-yl)-2-(methylamino)acetamide] | inhibition at 0.5 µM [1]: 76%; inhibition at 0.5 µM [2]: 87%
